One assay concerns the target T1, hDP (Homo sapiens, UniProt Q13258).
T1 construct: expressed in transfected cells; host or cells: HEK (by analogy HEK-293(EBNA))
T1 sequence (Q13258 1-359): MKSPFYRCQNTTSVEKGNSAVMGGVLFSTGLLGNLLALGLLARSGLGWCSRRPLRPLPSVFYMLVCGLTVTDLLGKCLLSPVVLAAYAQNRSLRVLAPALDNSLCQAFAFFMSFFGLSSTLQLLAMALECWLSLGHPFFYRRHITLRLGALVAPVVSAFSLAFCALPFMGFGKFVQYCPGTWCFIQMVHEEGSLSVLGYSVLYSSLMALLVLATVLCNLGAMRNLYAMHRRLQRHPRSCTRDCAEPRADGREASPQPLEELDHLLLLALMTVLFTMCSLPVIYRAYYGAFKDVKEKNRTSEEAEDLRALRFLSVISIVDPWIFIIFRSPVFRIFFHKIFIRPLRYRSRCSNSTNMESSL
The assay is described as follows: Calcium signal (FLIPR) assay, hDP (HEK). It counts as cell-based. To be noted: for Kb: antagonism of standard agonist BW245C, HEK cells coexpress chimeric Gqs5. The protocol: (§1) Cells were then washed twice with HBSS-HEPES buffer (Hanks Balanced Salt Solution without bicarbonate and phenol red, 20 mM HEPES, pH 7.4) using a Denley Cellwash plate washer (Labsystems; Franklin, Mass.). After 45-60 min of dye-loading in the dark using the calcium-sensitive dye Fluo-4 AM, at a final concentration of 2 μM, plates were washed four times with HBSS-HEPES buffer to remove excess dye and leaving 100 μl buffer in each well. Plates were then placed into a FLIPR™ instrument and were allowed to equilibrate at 37° C. Drug solution was added in a 50 μl volume to each well to give the desired final concentration. Cells were excited with an Argon laser at 488 nm, and emission was measured through a 510-570 nm bandwidth emission filter (FLIPR™, Molecular Devices, Sunnyvale, Calif.). The peak increase in fluorescence intensity was recorded for each well. […] A similar analysis was carried out for the other prostaglandin receptors, and for compound 2.

In a further assay the target is T2, hEP1 (Homo sapiens, UniProt P34995).
T2 construct: expressed in transfected cells; host or cells: HEK (by analogy HEK-293(EBNA))
T2 sequence (P34995 1-402): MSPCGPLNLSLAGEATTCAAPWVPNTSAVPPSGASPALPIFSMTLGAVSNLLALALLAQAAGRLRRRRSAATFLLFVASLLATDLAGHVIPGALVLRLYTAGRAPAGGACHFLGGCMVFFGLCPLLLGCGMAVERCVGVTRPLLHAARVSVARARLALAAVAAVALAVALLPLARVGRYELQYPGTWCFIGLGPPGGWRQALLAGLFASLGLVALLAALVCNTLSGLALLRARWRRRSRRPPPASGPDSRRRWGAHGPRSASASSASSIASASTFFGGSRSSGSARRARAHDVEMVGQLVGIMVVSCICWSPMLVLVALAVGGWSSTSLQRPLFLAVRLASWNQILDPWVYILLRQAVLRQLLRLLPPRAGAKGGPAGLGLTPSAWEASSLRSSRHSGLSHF
The experiment in a line: Calcium signal (FLIPR) assay, hEP1 (HEK). The assay is classed as cell-based. The protocol: as §1

In the next assay the target is T3, hEP3A (Homo sapiens, UniProt P43115).
T3 construct: expressed in transfected cells; host or cells: HEK (by analogy HEK-293(EBNA))
T3 sequence (P43115 1-390): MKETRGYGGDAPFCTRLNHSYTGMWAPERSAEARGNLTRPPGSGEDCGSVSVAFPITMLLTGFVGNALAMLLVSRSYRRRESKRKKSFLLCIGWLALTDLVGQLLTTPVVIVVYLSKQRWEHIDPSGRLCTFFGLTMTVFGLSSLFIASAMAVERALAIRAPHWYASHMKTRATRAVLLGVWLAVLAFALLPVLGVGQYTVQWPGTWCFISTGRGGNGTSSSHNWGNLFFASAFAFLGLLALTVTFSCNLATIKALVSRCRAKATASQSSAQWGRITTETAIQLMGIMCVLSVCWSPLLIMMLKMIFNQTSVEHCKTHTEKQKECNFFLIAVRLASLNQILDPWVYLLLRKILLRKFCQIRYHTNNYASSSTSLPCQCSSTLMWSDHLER
The experiment in a line: Calcium signal (FLIPR) assay, hEP3A (HEK). The assay is classed as cell-based. The protocol:
(§2) Cells were then washed twice with HBSS-HEPES buffer (Hanks Balanced Salt Solution without bicarbonate and phenol red, 20 mM HEPES, pH 7.4) using a Denley Cellwash plate washer (Labsystems; Franklin, Mass.). After 45-60 min of dye-loading in the dark using the calcium-sensitive dye Fluo-4 AM, at a final concentration of 2 μM, plates were washed four times with HBSS-HEPES buffer to remove excess dye and leaving 100 μl buffer in each well. Plates were then placed into a FLIPR™ instrument and were allowed to equilibrate at 37° C. […] The peak increase in fluorescence intensity was recorded for each well.

Another assay addresses T4, hTP (Homo sapiens, UniProt P21731).
T4 construct: expressed in transfected cells; host or cells: HEK (by analogy HEK-293(EBNA))
T4 sequence (P21731 1-343): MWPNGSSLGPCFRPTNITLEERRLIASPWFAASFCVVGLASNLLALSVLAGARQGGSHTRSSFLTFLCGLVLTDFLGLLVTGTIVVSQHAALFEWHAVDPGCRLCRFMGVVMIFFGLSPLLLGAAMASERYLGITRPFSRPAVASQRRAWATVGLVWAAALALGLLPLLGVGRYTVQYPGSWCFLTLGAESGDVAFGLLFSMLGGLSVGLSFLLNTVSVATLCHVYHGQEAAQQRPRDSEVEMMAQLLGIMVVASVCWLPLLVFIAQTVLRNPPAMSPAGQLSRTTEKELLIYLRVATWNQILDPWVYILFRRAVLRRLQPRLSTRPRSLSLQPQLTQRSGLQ
The experiment in a line: Calcium signal (FLIPR) assay, hTP (HEK). The assay is classed as cell-based. To be noted: for Kb: antagonism of standard agonist U-46619, HEK cells. How it is done:
as §1

Assay [1] is described as follows: Capsule or suppository given daily to patient suffering from cancer (Example 27). The assay is classed as in vivo, human. The protocol:
A capsule or suppository comprising compound 1 is administered daily to a patient suffering from cancer.

In another assay the target is T5, hEP2 (Homo sapiens, UniProt P43116).
T5 construct: expressed in transfected cells; host or cells: HEK (by analogy HEK-293(EBNA))
T5 sequence (P43116 whole entry): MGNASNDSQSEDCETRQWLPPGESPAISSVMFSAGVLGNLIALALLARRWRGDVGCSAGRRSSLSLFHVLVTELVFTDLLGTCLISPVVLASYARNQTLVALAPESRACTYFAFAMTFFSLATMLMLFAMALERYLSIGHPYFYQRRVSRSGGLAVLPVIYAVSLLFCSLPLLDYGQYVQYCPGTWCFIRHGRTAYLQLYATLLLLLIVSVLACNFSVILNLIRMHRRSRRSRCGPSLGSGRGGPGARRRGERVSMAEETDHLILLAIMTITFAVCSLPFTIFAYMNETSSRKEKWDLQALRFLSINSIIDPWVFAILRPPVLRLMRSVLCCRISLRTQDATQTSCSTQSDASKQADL
The experiment in a line: Calcium signal (FLIPR) assay, hEP2 (HEK). It counts as cell-based. The protocol:
as §2

The target of another assay is T6, hIP (Homo sapiens, UniProt P43119).
T6 construct: expressed in transfected cells; host or cells: HEK (by analogy HEK-293(EBNA))
T6 sequence (P43119 whole entry): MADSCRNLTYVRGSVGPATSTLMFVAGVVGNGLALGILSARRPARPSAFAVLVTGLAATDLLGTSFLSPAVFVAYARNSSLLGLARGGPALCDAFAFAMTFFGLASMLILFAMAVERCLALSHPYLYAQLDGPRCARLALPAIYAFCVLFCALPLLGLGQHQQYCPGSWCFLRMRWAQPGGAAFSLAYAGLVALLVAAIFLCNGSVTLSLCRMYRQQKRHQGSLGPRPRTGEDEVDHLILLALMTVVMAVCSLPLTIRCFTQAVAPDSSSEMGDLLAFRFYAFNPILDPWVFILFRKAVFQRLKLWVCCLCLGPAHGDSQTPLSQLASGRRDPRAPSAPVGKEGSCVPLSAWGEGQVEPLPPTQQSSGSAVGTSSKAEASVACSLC
The experiment in a line: Calcium signal (FLIPR) assay, hIP (HEK). It counts as cell-based. To be noted: antagonism of standard agonist Carbacyclin; HEK cells. How it is done:
as §2

A further assay addresses T7, human EP4 receptor (Homo sapiens, UniProt P35408).
T7 construct: expressed in transfected cells; host or cells: HEK-293(EBNA)
The experiment in a line: Effect on Prostaglandin E2 induced calcium signal (FLIPR), hEP4 (HEK). The assay is classed as cell-based. How it is done: as §2

In a further assay the target is T8, hFP (Homo sapiens, UniProt P43088).
T8 construct: expressed in transfected cells; host or cells: HEK (by analogy HEK-293(EBNA))
T8 sequence (P43088 whole entry): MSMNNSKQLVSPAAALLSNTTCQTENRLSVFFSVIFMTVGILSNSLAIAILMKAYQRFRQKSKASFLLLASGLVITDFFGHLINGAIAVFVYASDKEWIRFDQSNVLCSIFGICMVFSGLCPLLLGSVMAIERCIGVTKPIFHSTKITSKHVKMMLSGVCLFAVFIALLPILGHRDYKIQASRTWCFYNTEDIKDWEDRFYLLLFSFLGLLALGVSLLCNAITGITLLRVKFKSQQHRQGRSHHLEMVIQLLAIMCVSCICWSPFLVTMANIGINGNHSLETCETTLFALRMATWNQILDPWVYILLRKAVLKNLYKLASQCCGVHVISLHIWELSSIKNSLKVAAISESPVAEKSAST
The experiment in a line: Calcium signal (FLIPR) assay, hFP (HEK). It counts as cell-based. The protocol: as §2

The nature of assay [2]: Tablet given to person suffering from migraine headache (Example 26). The settings on record: person suffering from a migraine headache. The assay is classed as in vivo, human. The protocol:
A tablet comprising compound 2 is administered to a person suffering from a migraine headache.

Assay [3] can be described thus: Capsule given daily to patient suffering from osteoporosis (Example 25). It counts as in vivo, human. The protocol:
A capsule comprising compound 2 is administered daily to a patient suffering from osteoporosis.

This is an account of results in US7612082B2, “Prostaglandin EP4 antagonists” (Allergan, Inc., priority 2004, dated 2009).

T7 sequence (P35408 whole entry): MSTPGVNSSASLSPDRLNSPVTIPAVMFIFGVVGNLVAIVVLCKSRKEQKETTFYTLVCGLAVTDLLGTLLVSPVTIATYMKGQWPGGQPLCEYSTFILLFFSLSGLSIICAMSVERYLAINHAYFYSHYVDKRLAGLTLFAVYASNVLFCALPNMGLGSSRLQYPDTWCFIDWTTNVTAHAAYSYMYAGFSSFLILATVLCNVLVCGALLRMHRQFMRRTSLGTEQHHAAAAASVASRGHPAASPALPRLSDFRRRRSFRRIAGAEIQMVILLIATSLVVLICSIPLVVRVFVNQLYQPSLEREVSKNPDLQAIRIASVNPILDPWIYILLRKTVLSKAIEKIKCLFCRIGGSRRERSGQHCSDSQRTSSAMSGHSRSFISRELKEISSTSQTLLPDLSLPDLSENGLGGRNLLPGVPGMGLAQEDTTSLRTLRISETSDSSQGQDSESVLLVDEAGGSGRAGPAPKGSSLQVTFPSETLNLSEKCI

As to `O=C(O)CCCCCCC1C(=O)NC(=O)N1CCC(O)C1CCCCC1` (stereo not shown) [BW245C, reference compound], on hDP (agonist potency, calcium signal, cells coexpress chimeric Gqs5, read-out: Standard agonist hDP (HEK)), the EC50 came to 0.006 µM.

Regarding `CN(CC(=O)Nc1c2c(nc3c1CCC3)CCCC2)Cc1ccccc1` [Compound 1], the Kb on hEP1, at hEP3A, on hTP, on hEP2, on hDP and on hIP was over 10 µM each time. Further, the Kb at human EP4 receptor was 0.101 µM; on hFP, over 10 µM. Also, in assay [1], the “Patient's condition” value is “Improvement in the patient's condition occurs”.

Consider `CN(CC(=O)Nc1c2c(nc3ccccc13)CCC2)Cc1ccccc1` [Compound 2], for which the Kb on hEP1, on hEP3A, on hTP, at hEP2, at hDP and on hIP was over 10 µM in each case. For the same compound, the Kb on human EP4 receptor was 0.172 µM; on hFP it was over 10 µM. In addition, in assay [2], the Pain entry is “Significantly less pain is experienced by the patient”. Moreover, the Bone density entry in assay [3] is “Increase in bone density or reduction in bone density loss occurs”.

Turning to `CCCCC[C@H](O)/C=C/[C@@H]1[C@@H](C/C=C\CCCC(=O)O)[C@H]2CO[C@@H]1C2` [Compound U-46619, U-46619, reference compound], the EC50 on hTP (agonist potency, calcium signal, read-out: Standard agonist hTP (HEK)) was found to be 0.0003 µM.

For the compound `CCCCC[C@H](O)/C=C/[C@H]1[C@H](O)CC(=O)[C@@H]1C/C=C\CCCC(=O)O` [PGE2, Prostaglandin E2, reference compound], the EC50 on hEP1 (agonist potency, calcium signal, read-out: Standard agonist hEP1 (HEK)) came out at 0.0003 µM.
